pEC50: −log10 of the molar value.

For this assay, the system named is EGR1 promoter. Kind of assay: EGR1 reporter assay (luciferase) in genomically engineered HeLa cell line. It counts as cell-based. The conditions noted are these: Homo sapiens; EGR1 reporter HeLa cells, luciferase activity after 24 hours with compound. The source says: The compounds of the present invention can be characterized for their effect on expression of egr1 (early growth response protein 1) using an EGR1 reporter cell line.
The HeLa cell line was genetically modified to provide a simple, robust and highly reproducible cell-based assay reporting the activity of an endogenous EGR1 promoter. In brief, a construct encoding EGFP and luciferase proteins, separated by a self-cleaving P2A peptide was inserted, using CRISPR, immediately downstream (3′) to the promoter of endogenous EGR1. Upon treatment with compounds, cells express EGFP and luciferase from EGR1 promoter, which can be readily detected either in live cells using microscopy or cytometry, or through detection of luciferase activity in cell lysates.
To achieve stable genomic integration of an EGR1-promoter dual reporter, two plasmids were generated: one contained the reporter construct (eGFP-P2A-luciferase) flanked by homology arms that direct insertion into genomic DNA, by homologous recombination, of a break in genomic DNA generated by guide RNA targeted cleavage by Cas9 endonuclease. The gRNA expressing plasmid was based on px330 (56), into which a gRNA sequence that targets a break in gDNA close to the start codon of EGR1 was cloned. The left homology arm (encoding part of EGR1 promoter adjacent to its start codon) and right homology arm (encoding […] of start codon of EGR1) were cloned from gDNA using the following primers: […]
The present compounds can be tested, e.g. by using a HeLa cell line carrying an EGR1 reporter construct which allows for expression of luciferase and eGFP (enhanced GFP) controlled by the EGR1 promoter. For this reporter cells are seeded in the wells of a 384 well microtiter plate at a density of 2000 cells per well in 48 μl of DMEM supplemented with 4.5 g/l glucose, 2 mM glutamine and 10% FCS and are incubated for 24 hours at 37° C. with 5% CO2 and 95% humidity. Then, an eleven point 1:3 serial dilution of each test compound, from an initial concentration of 100 μM, is prepared in DMSO and the dilutions are added to the cells in a volume of 2 μl per well. The cells are incubated for a further 24 hours, after which the luciferase activity of each well is determined by addition of 25 μl of luciferase substrate reaction mixture (Britelite™ plus, Perkin Elmer) and measuring the bioluminescence light output (EnVision Xcite plate reader, PerkinElmer).
The compound of example 64 served as a positive control for this EGR1 reporter assay. The compound of example 64 had been identified in an initial high throughput screening campaign.
A general note: Reporter assays use an easily measured gene product as a stand-in for the process of interest.
For orientation: pEC50 means the EC50 on a negative log10 scale, so that one unit is a factor of ten. With `CC(=O)NCc1ccc(-c2csc(NC(=O)Cc3coc4cc(C)c(C(C)C)cc34)n2)o1` [Example 1, N-[4-[5-(Acetamidomethyl)-2-furyl]thiazol-2-yl]-2-(5-isopropyl-6-methyl-benzofuran-3-yl)acetamide], the pEC50 was 4.00 to 5.00. Consider `COc1ccc2c(CC(=O)Nc3nccs3)coc2c1` [Example 2, 2-(6-Methoxybenzofuran-3-yl)-N-thiazol-2-yl-acetamide], for which the pEC50 was 4.00 to 5.00. The value for `Cn1ccc(NC(=O)Cc2coc3cc4c(cc23)CCC4)n1` [Example 3, 2-(6,7-Dihydro-5H-cyclopenta[f]benzofuran-3-yl)-N-(1-methylpyrazol-3-yl)acetamide] was 4.00 to 5.00; that for `Cc1ccc2occ(CC(=O)Nc3ncc(C(F)(F)F)s3)c2c1` [Example 4, 2-(5-Methylbenzofuran-3-yl)-N-[5-(trifluoromethyl)thiazol-2-yl]acetamide] was 4.00 to 5.00. Take `CCc1ccc2c(CC(=O)Nc3nc(-c4ccccn4)cs3)coc2c1` [Example 5, 2-(6-Ethylbenzofuran-3-yl)-N-[4-(2-pyridyl)thiazol-2-yl]acetamide]: the negative-log EC50 (pEC50) is 4.00 to 5.00. The value for `O=C(Cc1coc2ccccc12)Nc1ncc(C(F)(F)F)s1` [Example 6, 2-(Benzofuran-3-yl)-N-[5-(trifluoromethyl)thiazol-2-yl]acetamide] was 4.00 to 5.00; that for `COc1ccc2c(CC(=O)Nc3nc(CC(N)=O)cs3)coc2c1` [Example 7, N-[4-(2-Amino-2-oxo-ethyl)thiazol-2-yl]-2-(6-methoxybenzofuran-3-yl)acetamide] was 4.00 to 5.00. The value for `COc1ccc2c(CC(=O)Nc3nc(-c4ccc(CNC(C)=O)o4)cs3)coc2c1` [Example 8, N-[4-[5-(Acetamidomethyl)-2-furyl]thiazol-2-yl]-2-(6-methoxybenzofuran-3-yl)acetamide] was 4.00 to 5.00; that for `Cc1cc2occ(CC(=O)Nc3nc(-c4ccccn4)cs3)c2cc1C` [Example 9, 2-(5,6-Dimethylbenzofuran-3-yl)-N-[4-(2-pyridyl)thiazol-2-yl]acetamide] was 4.00 to 5.00. For the molecule `Cc1cnc(NC(=O)Cc2coc3c(C)cccc23)s1` [Example 10, 2-(7-Methylbenzofuran-3-yl)-N-(5-methylthiazol-2-yl)acetamide], the pEC50 was 4.00 to 5.00.

On to `COc1ccc(OC)c(-c2csc(NC(=O)Cc3coc4cc(C)ccc34)n2)c1` [Example 11, N-[4-(2,5-Dimethoxyphenyl)thiazol-2-yl]-2-(6-methylbenzofuran-3-yl)acetamide], for which the pEC50 is 4.00 to 5.00.

Consider `COc1ccc2c(CC(=O)Nc3nc(C)cs3)coc2c1` [Example 12, 2-(6-Methoxybenzofuran-3-yl)-N-(4-methylthiazol-2-yl)acetamide], for which the pEC50 was 4.00 to 5.00. In the case of `CCOC(=O)c1csc(NC(=O)Cc2coc3cc(C)ccc23)n1` [Example 13, Ethyl 2-[[2-(6-methylbenzofuran-3-yl)acetyl]amino]thiazole-4-carboxylate], the negative-log EC50 (pEC50) was 4.00 to 5.00.

For `COc1ccc(OC)c(-c2csc(NC(=O)Cc3coc4cc(OC)ccc34)n2)c1` [Example 14, N-[4-(2,5-Dimethoxyphenyl)thiazol-2-yl]-2-(6-methoxybenzofuran-3-yl)acetamide], the pEC50 is 4.00 to 5.00.

Consider `Cc1cnc(NC(=O)Cc2coc3cc(Cl)ccc23)s1` [Example 15, 2-(6-Chlorobenzofuran-3-yl)-N-(5-methylthiazol-2-yl)acetamide], for which the pEC50 was 4.00 to 5.00. Turning to `Cc1cc2occ(CC(=O)N(c3ccc(F)cc3)c3nc4ccccc4s3)c2cc1C(C)C` [Example 16, N-(1,3-Benzothiazol-2-yl)-N-(4-fluorophenyl)-2-(5-isopropyl-6-methyl-benzofuran-3-yl)acetamide], the pEC50 was 4.00 to 5.00. The value for `Cc1cnc(NC(=O)Cc2coc3cc4c(cc23)CCC4)o1` [Example 17, 2-(6,7-Dihydro-5H-cyclopenta[f]benzofuran-3-yl)-N-(5-methyloxazol-2-yl)acetamide] was 4.00 to 5.00; that for `NC(=O)c1cnc(NC(=O)Cc2coc3cc4c(cc23)CCC4)s1` [Example 18, 2-[[2-(6,7-Dihydro-5H-cyclopenta[f]benzofuran-3-yl)acetyl]amino]thiazole-5-carboxamide] was 4.00 to 5.00. As for `CC(=O)NCc1ccc(-c2csc(NC(=O)Cc3coc4cc5c(cc34)CCC5)n2)o1` [Example 19, N-[4-[5-(Acetamidomethyl)-2-furyl]thiazol-2-yl]-2-(6,7-dihydro-5H-cyclopenta[f]benzofuran-3-yl)acetamide], the pEC50 is 4.00 to 5.00.

With `CCc1ccc2c(CC(=O)Nc3nccs3)coc2c1` [Example 20, 2-(6-Ethylbenzofuran-3-yl)-N-thiazol-2-yl-acetamide], the negative-log EC50 (pEC50) is 4.00 to 5.00. As for `Cc1ccc2c(CC(=O)Nc3nc(-c4ccccn4)cs3)coc2c1` [Example 21, 2-(6-Methylbenzofuran-3-yl)-N-[4-(2-pyridyl)thiazol-2-yl]acetamide], the negative-log EC50 (pEC50) was 4.00 to 5.00.

In the case of `Cc1cnc(NC(=O)Cc2coc3c(C)c(C)ccc23)[nH]1` [Example 22, 2-(6,7-Dimethylbenzofuran-3-yl)-N-(5-methyl-1H-imidazol-2-yl)acetamide], the pEC50 was 4.00 to 5.00. The value for `Cc1c[nH]c(NC(=O)Cc2coc3cc4c(cc23)CCC4)n1` [Example 23, 2-(6,7-dihydro-5H-cyclopenta[f]benzofuran-3-yl)-N-(5-methyl-1H-imidazol-2-yl)acetamide] was 5.00 to 8.00; that for `CC(=O)c1csc(NC(=O)Cc2coc3cc(C)ccc23)n1` [Example 24, N-(4-Acetylthiazol-2-yl)-2-(6-methylbenzofuran-3-yl)acetamide] was 5.00 to 8.00; that for `COc1ccc2c(CC(=O)Nc3nc(-c4ccncc4)cs3)coc2c1` [Example 25, 2-(6-Methoxybenzofuran-3-yl)-N-[4-(4-pyridyl)thiazol-2-yl]acetamide] was 5.00 to 8.00.

As for `COc1ccc2c(CC(=O)Nc3nc(-c4ccccn4)cs3)coc2c1` [Example 26, 2-(6-Methoxybenzofuran-3-yl)-N-[4-(2-pyridyl)thiazol-2-yl]acetamide], the pEC50 was 5.00 to 8.00. The value for `Cc1ccc2c(CC(=O)Nc3nc(-c4cccs4)cs3)coc2c1` [Example 27, 2-(6-Methylbenzofuran-3-yl)-N-[4-(2-thienyl)thiazol-2-yl]acetamide] was 5.00 to 8.00; that for `CC(=O)NCCc1ccc(-c2csc(NC(=O)Cc3coc4cc(C)ccc34)n2)s1` [Example 28, N-[4-[5-(2-Acetamidoethyl)-2-thienyl]thiazol-2-yl]-2-(6-methylbenzofuran-3-yl)acetamide] was 5.00 to 8.00; that for `COc1ccc2c(CC(=O)Nc3nc(-c4ccc5c(c4)CCC(=O)N5)cs3)coc2c1` [Example 29, 2-(6-Methoxybenzofuran-3-yl)-N-[4-(2-oxo-3,4-dihydro-1H-quinolin-6-yl)thiazol-2-yl]acetamide] was 5.00 to 8.00. As for `CCc1ccc2c(CC(=O)Nc3nc(-c4ccc(CNC(C)=O)cc4)cs3)coc2c1` [Example 30, N-[4-[4-(Acetamidomethyl)phenyl]thiazol-2-yl]-2-(6-ethylbenzofuran-3-yl)acetamide], the pEC50 is 5.00 to 8.00.

On to `Cc1ccc2c(CC(=O)Nc3nc(-c4ccncc4)cs3)coc2c1` [Example 31, 2-(6-Methylbenzofuran-3-yl)-N-[4-(4-pyridyl)thiazol-2-yl]acetamide], for which the negative logarithm of the EC50 (pEC50) is 5.00 to 8.00.

Turning to `COc1ccc2nc(NC(=O)Cc3coc4cc5c(cc34)CCC5)sc2c1` [Example 32, 2-(6,7-Dihydro-5H-cyclopenta[f]benzofuran-3-yl)-N-(6-methoxy-1,3-benzothiazol-2-yl)acetamide], the pEC50 is 5.00 to 8.00. The value for `Cc1ccc2c(CC(=O)Nc3nc(C)cs3)coc2c1` [Example 33, 2-(6-Methylbenzofuran-3-yl)-N-(4-methylthiazol-2-yl)acetamide] was 5.00 to 8.00; that for `Cc1cnc(NC(=O)Cc2coc3cc4c(cc23)OCO4)s1` [Example 34, 2-Furo[3,2-f][1,3]benzodioxol-7-yl-N-(5-methylthiazol-2-yl)acetamide] was 5.00 to 8.00.

In the case of `CCc1ccc2c(CC(=O)Nc3nc(C)cs3)coc2c1` [Example 35, 2-(6-Ethylbenzofuran-3-yl)-N-(4-methylthiazol-2-yl)acetamide], the negative-log EC50 (pEC50) was 5.00 to 8.00. The value for `Cc1ccc2c(CC(=O)Nc3nc(-c4ccc(C)o4)cs3)coc2c1` [Example 36, 2-(6-Methylbenzofuran-3-yl)-N-[4-(5-methyl-2-furyl)thiazol-2-yl]acetamide] was 5.00 to 8.00. The value for `COc1ccc2c(CC(=O)Nc3nc(-c4cccs4)cs3)coc2c1` [Example 37, 2-(6-Methoxybenzofuran-3-yl)-N-[4-(2-thienyl)thiazol-2-yl]acetamide] was 5.00 to 8.00.
